Results reported in publication PMC5309861, “Mechanistic insight into the substrate specificity of 1,2-β-oligoglucan phosphorylase from Lachnoclostridium phytofermentans” (Scientific Reports, 2017).

Target: T1, LpSOGP (Lachnoclostridium phytofermentans, UniProt A9KJS6)
T1 construct: gene Cphy_0694
T1 sequence (A9KJS6 1-1113): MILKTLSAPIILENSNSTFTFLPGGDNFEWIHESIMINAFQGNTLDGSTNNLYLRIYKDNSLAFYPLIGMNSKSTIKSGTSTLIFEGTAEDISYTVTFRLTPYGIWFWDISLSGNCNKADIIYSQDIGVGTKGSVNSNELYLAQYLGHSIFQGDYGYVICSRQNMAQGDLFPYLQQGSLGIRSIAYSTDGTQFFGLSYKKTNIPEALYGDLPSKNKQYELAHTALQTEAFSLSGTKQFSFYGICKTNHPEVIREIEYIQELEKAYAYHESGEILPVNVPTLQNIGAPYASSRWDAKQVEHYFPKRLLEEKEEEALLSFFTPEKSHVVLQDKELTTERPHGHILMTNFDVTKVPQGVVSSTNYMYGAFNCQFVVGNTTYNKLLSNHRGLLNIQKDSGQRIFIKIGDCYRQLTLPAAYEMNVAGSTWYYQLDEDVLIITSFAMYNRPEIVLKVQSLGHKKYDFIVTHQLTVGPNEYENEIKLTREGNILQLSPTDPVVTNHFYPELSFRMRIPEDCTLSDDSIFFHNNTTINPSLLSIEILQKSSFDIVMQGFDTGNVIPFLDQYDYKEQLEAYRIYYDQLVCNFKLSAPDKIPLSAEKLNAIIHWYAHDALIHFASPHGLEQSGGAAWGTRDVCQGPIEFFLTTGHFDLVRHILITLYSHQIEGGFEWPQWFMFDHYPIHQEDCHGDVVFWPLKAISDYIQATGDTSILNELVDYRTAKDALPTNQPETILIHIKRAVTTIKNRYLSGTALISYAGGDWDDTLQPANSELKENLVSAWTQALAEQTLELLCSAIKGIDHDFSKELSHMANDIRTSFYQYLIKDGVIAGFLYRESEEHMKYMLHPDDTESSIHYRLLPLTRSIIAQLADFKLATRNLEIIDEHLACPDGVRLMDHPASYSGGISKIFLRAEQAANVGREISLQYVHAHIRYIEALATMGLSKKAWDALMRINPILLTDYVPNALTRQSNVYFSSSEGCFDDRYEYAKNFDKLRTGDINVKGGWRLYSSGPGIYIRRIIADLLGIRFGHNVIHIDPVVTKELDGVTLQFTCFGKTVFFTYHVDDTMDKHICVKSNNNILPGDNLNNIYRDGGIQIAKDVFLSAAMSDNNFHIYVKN
Details: phosphorolysis; pH 7.5, 30 °C; co-substrate oligosaccharide not stated
Text: G1P release, coupled phosphoglucomutase / G6PDH assay, Michaelis-Menten fit on LpSOGP

- Synthesis / kcat/Km / (s^-1 mM^-1): 11 ± 1 mM
Structure (SMILES): O=P(O)(O)O [Pi, inorganic phosphate]
